# Target: T1, human Nav1.8 (Homo sapiens, UniProt Q9Y5Y9)
# T1 construct: expressed in transfected cells; host or cells: HEK293 (HEK293-Nav1.8)
# Assay: Nav1.8 sodium channels assay, QPatch 48 HTX electrophysiology in HEK293-Nav1.8 cells
# Format: cell-based
# Conditions: at least one set of experimental runs; read-out: average pIC50 value against Nav1.8 (converted)
# How it was run: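 IC50 came from 6-8 point curves of P2 current amplitude, normalized to baseline and a positive reference, and corrected for run-down using vehicle-only wells. Automated patch clamp used HEK293-Nav1.8 (with Navβ1 and TREK1) at pH 7.4 outside and CsF-based solution inside. An 8 s inactivating step at −46 mV preceded the 0 mV test pulse, repeated at 0.07 Hz.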
# T1 sequence (Q9Y5Y9 whole entry): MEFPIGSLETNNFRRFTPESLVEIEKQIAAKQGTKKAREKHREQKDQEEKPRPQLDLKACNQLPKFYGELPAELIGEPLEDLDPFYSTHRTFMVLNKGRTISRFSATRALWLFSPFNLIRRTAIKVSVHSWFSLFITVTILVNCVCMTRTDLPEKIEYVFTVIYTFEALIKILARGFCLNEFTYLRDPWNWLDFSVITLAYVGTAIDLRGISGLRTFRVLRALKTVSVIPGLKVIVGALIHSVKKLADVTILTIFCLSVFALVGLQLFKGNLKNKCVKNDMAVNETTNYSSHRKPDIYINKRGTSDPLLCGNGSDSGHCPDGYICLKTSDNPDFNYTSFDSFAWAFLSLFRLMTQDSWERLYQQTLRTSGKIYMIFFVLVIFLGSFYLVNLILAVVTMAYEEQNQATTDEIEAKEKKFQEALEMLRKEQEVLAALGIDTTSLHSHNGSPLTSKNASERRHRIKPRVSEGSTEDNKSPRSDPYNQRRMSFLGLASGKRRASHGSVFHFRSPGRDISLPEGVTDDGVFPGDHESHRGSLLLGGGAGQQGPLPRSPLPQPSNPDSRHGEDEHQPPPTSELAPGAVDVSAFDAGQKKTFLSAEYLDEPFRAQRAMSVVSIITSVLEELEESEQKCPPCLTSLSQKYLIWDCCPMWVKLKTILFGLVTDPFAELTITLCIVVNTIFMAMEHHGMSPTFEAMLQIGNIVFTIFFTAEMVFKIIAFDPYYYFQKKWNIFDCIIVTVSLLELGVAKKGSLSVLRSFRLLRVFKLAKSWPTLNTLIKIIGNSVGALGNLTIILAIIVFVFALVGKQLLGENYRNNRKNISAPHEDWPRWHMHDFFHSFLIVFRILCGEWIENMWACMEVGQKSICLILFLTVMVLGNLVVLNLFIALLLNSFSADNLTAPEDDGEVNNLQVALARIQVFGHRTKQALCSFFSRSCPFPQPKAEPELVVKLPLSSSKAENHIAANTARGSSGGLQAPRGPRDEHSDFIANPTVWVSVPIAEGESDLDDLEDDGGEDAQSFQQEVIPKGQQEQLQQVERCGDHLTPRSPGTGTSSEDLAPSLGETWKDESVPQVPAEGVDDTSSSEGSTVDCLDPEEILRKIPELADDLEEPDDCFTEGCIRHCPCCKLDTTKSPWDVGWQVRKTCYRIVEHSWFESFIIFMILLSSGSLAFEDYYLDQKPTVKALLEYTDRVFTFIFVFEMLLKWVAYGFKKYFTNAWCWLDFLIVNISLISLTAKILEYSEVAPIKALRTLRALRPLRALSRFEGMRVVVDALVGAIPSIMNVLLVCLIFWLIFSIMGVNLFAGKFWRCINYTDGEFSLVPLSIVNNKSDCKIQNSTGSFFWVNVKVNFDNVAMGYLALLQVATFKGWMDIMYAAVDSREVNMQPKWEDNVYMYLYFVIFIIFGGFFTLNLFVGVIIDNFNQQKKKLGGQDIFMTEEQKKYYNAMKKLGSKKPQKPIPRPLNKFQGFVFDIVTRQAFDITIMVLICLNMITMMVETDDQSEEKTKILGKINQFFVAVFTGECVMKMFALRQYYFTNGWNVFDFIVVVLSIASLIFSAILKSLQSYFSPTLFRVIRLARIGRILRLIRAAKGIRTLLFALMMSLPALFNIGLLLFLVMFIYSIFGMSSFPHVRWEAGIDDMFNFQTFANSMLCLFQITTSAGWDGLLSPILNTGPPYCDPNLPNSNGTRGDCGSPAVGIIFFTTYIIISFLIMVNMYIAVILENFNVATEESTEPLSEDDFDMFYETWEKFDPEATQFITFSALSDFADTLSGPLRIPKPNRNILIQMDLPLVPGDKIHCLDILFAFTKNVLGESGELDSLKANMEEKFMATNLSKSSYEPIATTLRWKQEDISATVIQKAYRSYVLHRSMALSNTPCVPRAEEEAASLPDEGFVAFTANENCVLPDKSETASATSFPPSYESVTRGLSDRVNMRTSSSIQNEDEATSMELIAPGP
# T1 sequence (Q07699 19-218 partner): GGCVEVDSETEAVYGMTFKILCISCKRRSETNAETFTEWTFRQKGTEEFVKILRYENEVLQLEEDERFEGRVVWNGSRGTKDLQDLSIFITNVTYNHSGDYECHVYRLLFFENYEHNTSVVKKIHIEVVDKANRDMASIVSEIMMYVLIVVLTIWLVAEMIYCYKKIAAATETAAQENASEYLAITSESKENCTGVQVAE
row,SMILES,IC50
1,"Cc1cc(OC(F)(F)F)ccc1N1CN(c2ccc(=O)[nH]c2C)C(=O)c2cc(Cl)c(C#N)nc21 [Example 170, 6-chloro-1-(2-methyl-4-(trifluoromethoxy)phenyl)-3-(2-methyl-6-oxo-1,6-dihydropyridin-3-yl)-4-oxo-1,2,3,4-tetra-hydropyrido[2,3-d]pyrimidine-7-carbonitrile]",≤ 100 nM
2,"Cc1cc(F)ccc1N1CN(c2ccc(=O)[nH]c2C)C(=O)c2cc(Cl)c(C#N)nc21 [Example 171, 6-chloro-1-(4-fluoro-2-methylphenyl)-3-(2-methyl-6-oxo-1,6-dihydropyridin-3-yl)-4-oxo-1,2,3,4-tetra-hydropyrido[2,3-d]pyrimidine-7-carbonitrile]",≤ 100 nM
3,"Cc1cc(OC(F)(F)F)ccc1N1CN(c2ccc(=O)[nH]c2C)C(=O)c2cc(Cl)c(C#N)cc21 [Example 172, 6-chloro-1-(2-methyl-4-(trifluoromethoxy)phenyl)-3-(2-methyl-6-oxo-1,6-dihydropyridin-3-yl)-4-oxo-1,2,3,4-tetra-hydroquinazoline-7-carbonitrile]",≤ 100 nM
4,"Cc1cc(F)ccc1N1CN(c2cnc(=O)[nH]c2C)C(=O)c2cc(Cl)c(C#N)cc21 [Example 173, 6-chloro-1-(4-fluoro-2-methylphenyl)-3-(6-methyl-2-oxo-1,2-dihydropyrimidin-5-yl)-4-oxo-1,2,3,4-tetra-hydroquinazoline-7-carbonitrile]",≤ 100 nM
5,"Cc1[nH]c(=O)ccc1N1CN(c2cccc(C(F)(F)F)c2C)c2ncc(C(F)(F)F)cc2C1=O [Example 174, 1-(2-methyl-3-(trifluoromethyl)phenyl)-3-(2-methyl-6-oxo-1,6-dihydropyridin-3-yl)-6-(trifluoromethyl)-2,3-dihydropyrido[2,3-d]pyrimidin-4(1H)-one]",126 to 631 nM
6,"Cc1[nH]c(=O)ccc1N1CN(c2cccc(Cl)c2C)c2ncc(C(F)(F)F)cc2C1=O [Example 175, 1-(3-chloro-2-methylphenyl)-3-(2-methyl-6-oxo-1,6-dihydropyridin-3-yl)-6-(trifluoromethyl)-2,3-dihydropyrido[2,3-d]pyrimidin-4(1H)-one]",126 to 631 nM
7,"CCc1cc(F)ccc1N1CN(c2ccc(=O)[nH]c2C)C(=O)c2cc(C(F)(F)F)cnc21 [Example 176, 1-(2-ethyl-4-fluorophenyl)-3-(2-methyl-6-oxo-1,6-dihydropyridin-3-yl)-6-(trifluoromethyl)-2,3-dihydropyrido[2,3-d]pyrimidin-4(1H)-one]",≤ 100 nM
8,"Cc1[nH]c(=O)ccc1N1CN(c2ccc(F)c(F)c2C)c2ncc(C(F)(F)F)cc2C1=O [Example 177, 1-(3,4-difluoro-2-methylphenyl)-3-(2-methyl-6-oxo-1,6-dihydropyridin-3-yl)-6-(trifluoromethyl)-2,3-dihydropyrido[2,3-d]pyrimidin-4(1H)-one]",≤ 100 nM
9,"Cc1[nH]c(=O)ccc1N1CN(c2ccc(F)cc2C(C)C)c2ccc(C(F)(F)F)cc2C1=O [Example 178, 1-(4-fluoro-2-isopropylphenyl)-3-(2-methyl-6-oxo-1,6-dihydropyridin-3-yl)-6-(trifluoromethyl)-2,3-dihydroquinazolin-4(1H)-one]",≤ 100 nM
10,"Cc1cc(=O)[nH]cc1N1CN(c2ccc(F)cc2C)c2ccc(C(F)(F)F)cc2C1=O [Example 179, 1-(4-fluoro-2-methylphenyl)-3-(4-methyl-6-oxo-1,6-dihydropyridin-3-yl)-6-(trifluoromethyl)-2,3-dihydroquinazolin-4(1H)-one]",126 to 631 nM
11,"Cc1[nH]c(=O)ccc1N1CN(c2ccc(F)cc2C(C)C)c2ccc(F)cc2C1=O [Example 180, 6-fluoro-1-(4-fluoro-2-isopropylphenyl)-3-(2-methyl-6-oxo-1,6-dihydropyridin-3-yl)-2,3-dihydroquinazolin-4(1H)-one]",≤ 100 nM
12,"Cc1[nH]c(=O)ccc1N1CN(c2ccc(F)cc2C2CC2)c2ccccc2C1=O [Example 181, 1-(2-cyclopropyl-4-fluorophenyl)-3-(2-methyl-6-oxo-1,6-dihydropyridin-3-yl)-2,3-dihydroquinazolin-4(1H)-one]",126 to 631 nM
13,"Cc1[nH]c(=O)ccc1N1CN(c2ccc(F)cc2C2CC2)c2cc(C(F)(F)F)ccc2C1=O [Example 182, 1-(2-cyclopropyl-4-fluorophenyl)-3-(2-methyl-6-oxo-1,6-dihydropyridin-3-yl)-7-(trifluoromethyl)-2,3-dihydroquinazolin-4(1H)-one]",≤ 100 nM
14,"Cc1cc(F)ccc1N1CN(c2ccc(=O)[nH]c2C)C(=O)c2c(F)cccc21 [Example 183, 5-fluoro-1-(4-fluoro-2-methylphenyl)-3-(2-methyl-6-oxo-1,6-dihydropyridin-3-yl)-2,3-dihydroquinazolin-4(1H)-one]",126 to 631 nM
15,"CCc1cc(F)ccc1N1CN(c2ccc(=O)[nH]c2C)C(=O)c2ccc(C(F)(F)F)cc21 [Example 184, 1-(2-ethyl-4-fluorophenyl)-3-(2-methyl-6-oxo-1,6-dihydropyridin-3-yl)-7-(trifluoromethyl)-2,3-dihydroquinazolin-4(1H)-one]",≤ 100 nM
16,"Cc1cc(F)ccc1N1CN(c2ccc(=O)[nH]c2C)C(=O)c2ccc(OC(F)F)cc21 [Example 185, 7-(difluoromethoxy)-1-(4-fluoro-2-methylphenyl)-3-(2-methyl-6-oxo-1,6-dihydropyridin-3-yl)-2,3-dihydroquinazolin-4(1H)-one]",≤ 100 nM
17,"Cc1cc(F)ccc1-n1c(=O)n(-c2ccc(=O)[nH]c2)c(=O)c2ccc(C(F)(F)F)cc21 [Example 186, 1-(4-fluoro-2-methylphenyl)-3-(6-oxo-1,6-dihydropyridin-3-yl)-7-(trifluoromethyl) quinazoline-2,4(1H,3H)-dione]",794 to 7940 nM
18,"Cc1cc(F)ccc1N1CN(c2ccc(=O)[nH]c2C)C(=O)c2ccc(C3CC3)cc21 [Example 187, 7-cyclopropyl-1-(4-fluoro-2-methylphenyl)-3-(2-methyl-6-oxo-1,6-dihydropyridin-3-yl)-2,3-dihydroquinazolin-4(1H)-one]",≤ 100 nM
19,"Cc1cc(F)ccc1N1CN(c2ccc(=O)[nH]c2C)C(=O)c2cc(OC(F)(F)F)ccc21 [Example 188, 1-(4-fluoro-2-methylphenyl)-3-(2-methyl-6-oxo-1,6-dihydropyridin-3-yl)-6-(trifluoromethoxy)-2,3-dihydroquinazolin-4(1H)-one]",≤ 100 nM
20,"Cc1cc(OC(F)F)ccc1N1CN(c2ccc(=O)[nH]c2C)C(=O)c2cc(C(F)(F)F)ccc21 [Example 189, 1-(4-(difluoromethoxy)-2-methylphenyl)-3-(2-methyl-6-oxo-1,6-dihydropyridin-3-yl)-6-(trifluoromethyl)-2,3-dihydroquinazolin-4(1H)-one]",≤ 100 nM
21,"CCc1[nH]c(=O)ccc1N1CN(c2ccc(F)cc2C)c2cc(OC(F)(F)F)ccc2C1=O [Example 190, 3-(2-ethyl-6-oxo-1,6-dihydropyridin-3-yl)-1-(4-fluoro-2-methylphenyl)-7-(trifluoromethoxy)-2,3-dihydroquinazolin-4(1H)-one]",≤ 100 nM
22,"CCc1cc(F)ccc1N1CN(c2ccc(=O)[nH]c2C)C(=O)c2cc(Cl)c(F)cc21 [Example 191, 6-chloro-1-(2-ethyl-4-fluorophenyl)-7-fluoro-3-(2-methyl-6-oxo-1,6-dihydropyridin-3-yl)-2,3-dihydroquinazolin-4(1H)-one]",≤ 100 nM
23,"CCc1cc(F)ccc1N1CN(c2ccc(=O)[nH]c2C)C(=O)c2cc(Cl)c(C#N)cc21 [Example 192, 6-chloro-1-(2-ethyl-4-fluorophenyl)-3-(2-methyl-6-oxo-1,6-dihydropyridin-3-yl)-4-oxo-1,2,3,4-tetra-hydroquinazoline-7-carbonitrile]",≤ 100 nM
24,"Cc1cc(F)ccc1N1CN(c2ccc(=O)[nH]c2C)C(=O)c2c1cc(F)c(Cl)c2F [Example 193, 6-chloro-5,7-difluoro-1-(4-fluoro-2-methylphenyl)-3-(2-methyl-6-oxo-1,6-dihydropyridin-3-yl)-2,3-dihydroquinazolin-4(1H)-one]",≤ 100 nM
25,"Cc1cc(F)ccc1N1CN(c2ccc(=O)[nH]c2C)C(=O)c2c1cc(C#N)c(Cl)c2F [Example 194, 6-chloro-5-fluoro-1-(4-fluoro-2-methylphenyl)-3-(2-methyl-6-oxo-1,6-dihydropyridin-3-yl)-4-oxo-1,2,3,4-tetra-hydroquinazoline-7-carbonitrile]",≤ 100 nM
26,"Cc1cc(C(F)(F)F)ccc1N1CN(c2ccc(=O)[nH]c2C)C(=O)c2cc(C(F)(F)F)cnc21 [Example 195, 1-(2-methyl-4-(trifluoromethyl)phenyl)-3-(2-methyl-6-oxo-1,6-dihydropyridin-3-yl)-6-(trifluoromethyl)-2,3-dihydropyrido[2,3-d]pyrimidin-4(1H)-one]",794 to 7940 nM
27,"Cc1cc(Cl)ccc1N1CN(c2ccc(=O)[nH]c2C)C(=O)c2cc(C(F)(F)F)cnc21 [Example 196, 1-(4-chloro-2-methylphenyl)-3-(2-methyl-6-oxo-1,6-dihydropyridin-3-yl)-6-(trifluoromethyl)-2,3-dihydropyrido[2,3-d]pyrimidin-4(1H)-one]",126 to 631 nM
28,"Cc1cc(F)ccc1N1CN(c2ccc(=O)[nH]c2C)C(=O)c2ccc(C(F)(F)CO)cc21 [Example 197, 7-(1,1-difluoro-2-hydroxyethyl)-1-(4-fluoro-2-methylphenyl)-3-(2-methyl-6-oxo-1,6-dihydropyridin-3-yl)-2,3-dihydroquinazolin-4(1H)-one]",794 to 7940 nM
29,"Cc1cc(F)ccc1N1CN(c2ccc(=O)[nH]c2C(C)C)C(=O)c2ccc(C(F)(F)F)cc21 [Example 198, 1-(4-fluoro-2-methylphenyl)-3-(2-isopropyl-6-oxo-1,6-dihydropyridin-3-yl)-7-(trifluoromethyl)-2,3-dihydroquinazolin-4(1H)-one]",≤ 100 nM
